Test results taken from patent US7569605B2, “Methods of treating central nervous system disorders with a low dose combination of escitalopram and bupropion” (Forest Laboratories Holdings Limited, priority 2005, dated 2009).

Tests used:
[1] = test system: rat dorsal raphe nucleus (DRN) 5-HT neurons; experiment: effects on rat dorsal raphe nucleus serotonin neurons (extracellular unitary recordings of firing); format: in vivo; conditions: anesthetized rats; two days treatment; escitalopram 10 mg/kg s.c. minipump, bupropion 30 mg/kg s.c. once daily
Experimental: Glass electrodes were lowered into the DRN 5-HT neurons were identified by their firing pattern and spike duration. […] NS). […] The experiments were carried out in male Sprague Dawley rats (Charles River, St. Constant, Québec, Canada) weighing between 300 to 325 g being kept under standard laboratory conditions (12:12 light-dark cycle with access to food and water ad libitum). Rats were anaesthetized with chloral hydrate (400 mg/kg, i.p.) and mounted in a stereotaxic apparatus (David Kopf Instruments, Tujunga, Calif., USA). […] Body temperature was maintained at 37° C. throughout the experiments utilizing a thermistor-controlled heating pad (Seabrook Medical Instruments, Inc., […], Canada). Prior to electrophysiological recording, rats were inserted with a catheter in a lateral tail vein for systemic injection of drugs. Rats received escitalopram oxalate administered through an osmotic minipump implanted subcutaneously, under halothane anaesthesia, which delivered 10 mg/kg/day. The recordings were carried out with the minipump in the animals. Bupropion hydrochloride was injected subcutaneously once a day at a dose of 30 mg/kg for 2 days with the last dose administered immediately prior to the electrophysiological experiments. […] Their impedance range was between 2 and 4 MΩ. […] Serotonin neurons were recorded with micropipettes lowered at +1.0 mm interaural on midline. […]

[2] = test system: patients with major depressive disorder (MDD); experiment: double-blind fixed dose comparison in major depressive disorder: safety and tolerability; format: in vivo, human; conditions: for Early Discontinuation: AEs / Early Discontinuation: All Reasons / Early Discontinuation: Insufficient Response / Incidence of TEAEs: Pts with at least 1 TEAE / Selected TEAEs: anorexia / Selected TEAEs: completed suicide* / Selected TEAEs: constipation / Selected TEAEs: decreased appetite / Selected TEAEs: diarrhea / Selected TEAEs: dizziness / Selected TEAEs: dry mouth / Selected TEAEs: early morn awakening / Selected TEAEs: ejaculation delayed / Selected TEAEs: erectile dysfunction / Selected TEAEs: hypersomnia / Selected TEAEs: increased appetite / Selected TEAEs: initial insomnia / Selected TEAEs: insomnia / Selected TEAEs: intentional self-injury / Selected TEAEs: lethargy / Selected TEAEs: libido decreased / Selected TEAEs: libido increased / Selected TEAEs: middle insomnia / Selected TEAEs: nausea / Selected TEAEs: orgasm abnormal / Selected TEAEs: sedation / Selected TEAEs: sleep disorder / Selected TEAEs: somnolence / Selected TEAEs: suicidal ideation / Selected TEAEs: vomiting / Selected TEAEs: weight decreased / Selected TEAEs: weight increased: number of patients (%), 8 weeks double-blind; for patients discontinued treatment early / patients exhibited at least one Treatment Emergent Adverse Event (TEAE): percent of patients, as given in the text
Experimental: The present study evaluates the efficacy, safety, and tolerability of escitalopram/bupropion combination treatment relative to its component monotherapies, and to placebo in patients with major depressive disorder (MDD).
The study consists of a one-week single-blind placebo lead-in period followed by an 8 week double-blind treatment period. Approximately 135 patients are randomized to each of four treatment groups (placebo, escitalopram oxalate 4 mg, bupropion hydrochloride 150 mg, or escitalopram oxalate 4 mg/bupropion hydrochloride 150 mg), for a total of […].
A randomized, double-blind, fixed-dose, multicenter, parallel-group study is conducted in outpatients with MDD. Patients who meet eligibility criteria at Screening (Visit 1) enter a one-week, single-blind, lead-in period of placebo treatment. Patients who complete the lead-in period and continue to meet all entry criteria at Baseline (Visit 2) are randomly assigned to 8 weeks of double-blind treatment with either placebo, escitalopram 4 mg, bupropion XL 150 mg, or escitalopram 4 mg/bupropion XL 150 mg combination. Assignment to a treatment group is according to a computer-generated randomization schedule.
Safety assessments are made of the patients by a physician at every visit and the evaluation documented. At each visit beginning with Visit 2, patients are queried regarding any adverse events (AEs) since the last visit. Study site personnel record all pertinent information in the electronic Case Report Forms (eCRF). Patients are asked to volunteer information concerning AEs with non-leading question such as “How do you feel?” AEs are collected at Visit 2 and all subsequent visits including early termination.
Dosing: For the single-blind lead-in period, patients are supplied with placebo capsules. For the double-blind period, identical appearing capsules are supplied which contain placebo, escitalopram 4 mg, or bupropion extended-release 150 mg. Medication are supplied in blister cards, each containing 20 capsules arranged in two rows of 10 capsules.
All study medication is administered as a single daily dose throughout the study, preferably at the same time each evening starting on the day the medication is dispensed to the patient. Dosing is subsequently be switched to morning, if preferred. At each visit, patients are instructed to take 2 capsules daily, one from Row 1 and one from Row 2. Patients are instructed to return all unused medication at each study visit. Patients who meet eligibility criteria at Visit 1 are dispensed one blister card containing 20 placebo capsules. Patients are instructed to take two capsules daily as a single dose beginning on the day study medication is dispensed. Patients who meet all eligibility criteria at Visit 2 are assigned a randomization number and dispensed the corresponding blister card for Week 1 of treatment as shown in the Figure below:
Patients are assigned the lowest randomization number available at the site. Patients are instructed to take two capsules daily as a single dose beginning on the day study medication is dispensed. In accordance with their assigned treatment group, patients receive placebo, 4 mg escitalopram, 150 mg bupropion, or 4 mg escitalopram and 150 mg bupropion per day.
At Visit 3, patients are dispensed one blister card for Week 2 of treatment. At Visits 4, 5, and 6, patients are dispensed two blister cards for Weeks 3-4, 5-6, and 7-8 of treatment, respectively. Patients are instructed to continue taking two capsules daily as a single dose. In accordance with their assigned treatment group, patients receive placebo, 4 mg escitalopram, 150 bupropion, or 4 mg escitalopram and 150 mg bupropion per day.

SMILES | spontaneous firing of DRN 5-HT neurons [1] [Hz] | Early Discontinuation: AEs [2] | Early Discontinuation: All Reasons [2] | Early Discontinuation: Insufficient Response [2] | Incidence of TEAEs: Pts with at least 1 TEAE [2] | Selected TEAEs: anorexia [2] | Selected TEAEs: completed suicide* [2] [%] | Selected TEAEs: constipation [2] | Selected TEAEs: decreased appetite [2] | Selected TEAEs: diarrhea [2] | Selected TEAEs: dizziness [2] | Selected TEAEs: dry mouth [2] | Selected TEAEs: early morn awakening [2] | Selected TEAEs: ejaculation delayed [2] | Selected TEAEs: erectile dysfunction [2] [%] | Selected TEAEs: hypersomnia [2] [%] | Selected TEAEs: increased appetite [2] | Selected TEAEs: initial insomnia [2] | Selected TEAEs: insomnia [2] | Selected TEAEs: intentional self-injury [2] [%] | further results
CN(C)CCC[C@@]1(c2ccc(F)cc2)OCc2cc(C#N)ccc21 [escitalopram, 1-[3-(dimethyl-amino)propyl]-1-(p-fluorophenyl)-5-phthalancarbonitrile] | 0.35 | 5 (3.8%) | 24 (18.3%) | 0% | 86 (65.6%) | 1 (0.8%) | 0 | 3 (2.3%) | 2 (1.5%) | 6 (4.6%) | 3 (2.3%) | 11 (8.4%) | 1 (0.8%) | 2 (3.9%) | 0 | 0 | 1 (0.8%) | 0% | 5 (3.8%) | 0 | Selected TEAEs: lethargy [2]: 0%; Selected TEAEs: libido decreased [2]: 3 (2.3%); Selected TEAEs: libido increased [2]: 0%; Selected TEAEs: middle insomnia [2]: 0%; Selected TEAEs: nausea [2]: 10 (7.6%); Selected TEAEs: orgasm abnormal [2]: 0%; Selected TEAEs: sedation [2]: 1 (0.8%); Selected TEAEs: sleep disorder [2]: 0%; Selected TEAEs: somnolence [2]: 4 (3.1%); Selected TEAEs: suicidal ideation [2]: 0%; Selected TEAEs: vomiting [2]: 2 (1.5%); Selected TEAEs: weight decreased [2]: 0%; Selected TEAEs: weight increased [2]: 3 (2.3%); patients discontinued treatment early [2]: 18.3%; patients exhibited at least one Treatment Emergent Adverse Event (TEAE) [2]: 65.6%
CC(NC(C)(C)C)C(=O)c1cccc(Cl)c1 (racemic) [bupropion, (±)-1-(3-chlorophenyl)-2-[(1,1-dimethylethyl)amino]-1-propanone] | 1.54 | 10 (7.5%) | 29 (21.6%) | 4 (3.0%) | 101 (75.4%) | 0% | 0 | 6 (4.5%) | 5 (3.7%) | 5 (3.7%) | 2 (1.5%) | 13 (9.7%) | 2 (1.5%) | 0% | 0 | 0 | 3 (2.2%) | 1 (0.7%) | 14 (10.4%) | 0 | Selected TEAEs: lethargy [2]: 2 (1.5%); Selected TEAEs: libido decreased [2]: 1 (0.7%); Selected TEAEs: libido increased [2]: 0%; Selected TEAEs: middle insomnia [2]: 3 (2.2%); Selected TEAEs: nausea [2]: 5 (3.7%); Selected TEAEs: orgasm abnormal [2]: 0%; Selected TEAEs: sedation [2]: 1 (0.7%); Selected TEAEs: sleep disorder [2]: 2 (1.5%); Selected TEAEs: somnolence [2]: 2 (1.5%); Selected TEAEs: suicidal ideation [2]: 1 (0.7%); Selected TEAEs: vomiting [2]: 0%; Selected TEAEs: weight decreased [2]: 4 (3.0%); Selected TEAEs: weight increased [2]: 0%; patients discontinued treatment early [2]: 21.6%; patients exhibited at least one Treatment Emergent Adverse Event (TEAE) [2]: 75.4%
